What all share (experiment): inhibition of tumour cell growth, NCI panel, 48 h
Assay [1] deals with LOX IMVI melanoma.
The subject of assay [2] is SF-295 CNS.
The test system of assay [3] is SNB-75 CNS.
In assay [4] the test system is MALME-3M melanoma.
The test system of assay [5] is OVCAR-3 ovarian.
Assay [6] relates to MDA-MB-435.
For assay [7], the system named is PC-3 prostate.
Assay [8] relates to A498 renal.
The subject of assay [9] is SK-OV-3 ovarian.
Assay [10] deals with HT29 colon.

The structures appear in SMILES notation.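 These data come from cells grown in 96-well plates and exposed to compound for 48 hours at five concentrations. Here, GI50 denotes the concentration required for 50% inhibition of growth. Definition used: TGI = concentration required for complete inhibition of growth.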 Some results are limits rather than exact numbers.

Consider `COc1cc[nH]c1/C=C1\C(=O)Nc2ccc(F)c(I)c21`, for which the GI50 in assay [1], in assay [2], in assay [3], in assay [4], in assay [5] and in assay [6] was over 25 µM throughout. In addition, the GI50 in [7], in [8], in assay [9] and in assay [10] was over 25 µM each time. The TGI in assay [1], in assay [2], in [3], in assay [4], in assay [5] and in assay [6] was over 25 µM throughout. Moreover, the TGI in assay [7], in [8], in [9] and in assay [10] was over 25 µM throughout.
Regarding `CCCCCCCCCCCCCC(=O)CBr`, the TGI in assay [1] was 23 µM; in [2], 29.3 µM; in assay [3], 16 µM; in assay [4], 23.6 µM; in assay [5], 39.9 µM; in assay [6] it was 32 µM. Also, the TGI worked out at 16.3 µM in assay [7], 35.5 µM in [8], 43.2 µM in [9] and 30.5 µM in [10].
For the compound `O=C1C(Cl)=C(Nc2cccc(O)c2)C(=O)N1c1cc(Cl)c(Cl)cc1Cl`, the GI50 in assay [1] is 13 µM; in [2], 20.6 µM; in assay [3], 16.4 µM; in [4], 7.29 µM; in [5] it was 15.9 µM; in [6], 22.7 µM. In addition, the GI50 in [7] is 15.2 µM; in [9] it was 20.8 µM; in assay [10], 18 µM. Moreover, the TGI in assay [1] amounted to 28 µM; in assay [2], 53.2 µM; in [3], 31.3 µM; in [4] it was 23.4 µM; in assay [5], 36.1 µM; in assay [6], 55.9 µM. The TGI in assay [7] was determined as 31.6 µM; in [8], 7.84 µM; in assay [9], 65.3 µM; in assay [10], 40 µM.
Turning to `COc1ccc(-c2cncn2-c2ccc(OC)cc2)cc1`, the GI50 is 29.6 µM in assay [1]; 12.7 µM in assay [2]; 20 µM in assay [5]; 3.62 µM in assay [6]; 30 µM in assay [7]; 16.3 µM in [8]. Also, the TGI was over 100 µM in assay [1]; 47 µM in assay [2]; 45.5 µM in assay [5]; 14.1 µM in assay [6]; over 100 µM in assay [7]; 34.3 µM in assay [8].
As for `Cc1ccc(C(O)c2cnc(C)n2Cc2ccccc2)cc1` (stereo not given), the TGI in assay [1], in assay [2], in assay [3], in assay [4], in [5] and in assay [6] was over 100 µM in each case. For the same compound, the TGI in assay [7], in [8], in assay [9] and in [10] was over 100 µM in each case.
Regarding `C[C@@H]1CN(CC(=O)N2CC(C)(C)c3nc(CO)c(Cc4ccc(F)cc4)cc32)[C@@H](CN2CCOC[C@H]2C)CN1`, the GI50 is 17.5 µM in [1]; 61.6 µM in assay [2]; 19.7 µM in assay [3]; 16 µM in assay [4]; over 100 µM in assay [5]; 37.1 µM in assay [6]. Also, the GI50 is 58.5 µM in assay [7], 25.8 µM in assay [8], 0.0235 µM in assay [9] and 22.2 µM in assay [10]. In addition, the TGI in assay [1] was 33.1 µM; in assay [2], over 100 µM; in assay [3], over 100 µM; in assay [4] it was 31.1 µM; in assay [5], over 100 µM; in assay [6], over 100 µM. In addition, the TGI in [7] is over 100 µM; in assay [8], 96.2 µM; in [9] it was 0.088 µM; in assay [10], 49.2 µM.
As for `CC(=O)O[C@@H]1CC2C(C)(C)CCCC2(C)C2=C1C(=O)C(C(C)C)=CC2=O` (stereo not given in full), the GI50 in assay [1] is 1.59 µM; in assay [2], 1.77 µM; in assay [4], 0.784 µM; in [5] it was 1.51 µM; in assay [6], 0.481 µM; in assay [7], 2.45 µM. In addition, the GI50 in [8] is 1.06 µM; in assay [9] it was 3.26 µM; in [10] it was 2.03 µM. Besides, the TGI in assay [1] was 3.48 µM; in [2], 3.61 µM; in assay [4] it was 4.8 µM; in assay [5], 3.36 µM; in [6] it was 1.93 µM; in assay [7], 12.9 µM. Moreover, the TGI was 2.35 µM in [8], 8.5 µM in assay [9] and 5.54 µM in [10].
With `O=NNc1nc(-c2cccnc2)nc2ccccc12`, the TGI in assay [2], in assay [3], in assay [5], in assay [7], in assay [8] and in [9] was over 100 µM throughout. In addition, in assay [10], the TGI is over 100 µM.
`COc1ccc2c(c1)OC(N(C(C)=O)C(C)=O)=C(C#N)C2c1ccc(F)cc1` (stereo not given): the GI50 is 3.26 µM in [1]; 2.83 µM in [2]; 1.28 µM in assay [3]; 21.6 µM in [4]; 0.676 µM in [5]; 2.2 µM in [7]. The values for the GI50 in assay [8], in assay [9] and in assay [10] were 2.43 µM, 2.47 µM and 2.55 µM, respectively. The TGI in assay [1] is over 100 µM; in assay [2], over 100 µM; in [3] it was over 100 µM; in assay [4] it was over 100 µM; in [5], 7.5 µM; in assay [7], over 100 µM. Also, the TGI in assay [8] is over 100 µM; in assay [9] it was over 100 µM; in [10] it was 18 µM.
As for `c1cnc2[nH]cc(-c3csc(-c4cn(CCCCN5CCOCC5)c5ccccc45)n3)c2c1`, the GI50 was 1.74 µM in assay [1]; 1.92 µM in [2]; 1.19 µM in assay [3]; 1.32 µM in assay [4]; 1.64 µM in assay [5]; 1.72 µM in assay [6]. Moreover, the GI50 is 1.59 µM in assay [7] and 2.34 µM in [9]. In addition, the TGI in assay [1] is 3.26 µM; in assay [2], 4.04 µM; in assay [3], 2.54 µM; in assay [4], 2.96 µM; in assay [5], 3.17 µM; in [6], 3.2 µM. Also, the TGI in assay [7] was determined as 4.01 µM; in assay [9] it was 5.74 µM.
For the compound `CCOP(=O)(OCC)C(NC(c1ccccc1)c1ccccc1)c1cccc2ccccc12` (stereo not given), the GI50 in assay [2] is 6.76 µM; in assay [5], 4.22 µM; in [6], 9.18 µM; in [7], 3.37 µM. In addition, the TGI in [2] was 65.7 µM; in assay [5], 12.5 µM; in assay [6], 28.3 µM; in assay [7], 13.9 µM.
For `CO/N=C(\C)c1ccc(Nc2cc(-c3ccccc3)nc3c(O)cccc23)cc1`, the GI50 was 14.3 µM in assay [1]; 12.7 µM in assay [2]; 22.1 µM in assay [3]; 16.4 µM in assay [5]; 15.5 µM in [6]; 13.7 µM in [7]. Moreover, the figures for the GI50 in assay [8], in assay [9] and in assay [10] were 21.4 µM, 18.8 µM and 21.9 µM, respectively. The TGI in [1] was determined as 27.9 µM; in assay [2] it was 27.9 µM; in [3], 46.1 µM; in [5], 32.4 µM; in [6], 30.9 µM; in assay [7], 35 µM. For the same compound, the TGI in assay [8] was determined as 41.6 µM; in assay [9], 35.5 µM; in assay [10] it was 49.5 µM.
As for `C=C(C)C(=O)O[C@H]1[C@H]2[C@H](OC(=O)[C@H]2C)[C@H](O)[C@@H](C)[C@@H]2C=CC(=O)[C@]21C`, the TGI was 7.74 µM in assay [1]; 18.7 µM in [2]; 5.54 µM in assay [4]; 18.4 µM in assay [5]; 7.28 µM in assay [6]; 18.5 µM in assay [7]. The TGI was 6.56 µM in assay [8], 18.3 µM in [9] and 10.7 µM in assay [10].
As to `CC(C)NC(=O)OCCS(=O)c1c(Cl)c(Cl)nn1C` (stereo not given), the TGI in [1] is over 100 µM; in [2], over 100 µM; in assay [3], over 100 µM; in assay [5], over 100 µM; in assay [6] it was 56.3 µM; in assay [7], over 100 µM. Besides, the TGI in assay [8], in [9] and in assay [10] was over 100 µM each time.
For the compound `N[C@H](C(=O)O)[C@H](Cl)CC(=O)O`, the TGI in assay [1], in [2], in assay [3], in [4], in assay [5] and in assay [8] was over 100 µM throughout. The TGI in [9] and in [10] was over 100 µM throughout.
With `Nc1nc2c(c(=O)[nH]1)CN(c1ccc(S(N)(=O)=O)cc1)CN2`, the TGI in assay [1], in [2], in assay [4], in [5], in assay [6] and in assay [7] was over 100 µM each time. Besides, the TGI in [8] and in [10] was over 100 µM throughout.
As to `COc1nc2nccc-2c2occn12`, the TGI in [1], in assay [2], in [3], in assay [4], in [5] and in assay [8] was over 100 µM each time. Moreover, the TGI in [9] and in assay [10] was over 100 µM in each case.
As for `COC(=O)CNC(=O)[C@@H](OC)[C@@H]1Cc2cc3cc(OC4CC(OC5CC(O)C(O)C(C)O5)C(O)C(C)O4)c(C)c(O)c3c(O)c2C(=O)[C@H]1OC1CC(OC2CC(OC3CC(C)(O)C(O)C(C)O3)C(O)C(C)O2)C(O)C(C)O1` (stereo not given in full), the GI50 in [1] is 0.0592 µM; in [2], 0.109 µM; in assay [3] it was 0.127 µM; in assay [4], 0.123 µM; in [5] it was 0.204 µM; in assay [6] it was 0.166 µM. Further, the GI50 in assay [7] is 0.234 µM; in assay [9], 0.444 µM; in assay [10], 0.171 µM. Besides, the TGI is over 50 µM in [1]; over 50 µM in [2]; 0.9 µM in assay [3]; 1.03 µM in assay [4]; 4.27 µM in assay [5]; 1.25 µM in [6]. The TGI in assay [7], in [9] and in [10] was over 50 µM in each case.
Consider `CC(=O)c1cc([N+](=O)[O-])ccc1OCC(=O)O`, for which the TGI in assay [1], in assay [2], in assay [3], in [4], in [5] and in assay [8] was over 100 µM each time. Also, the TGI in assay [9] and in [10] was over 100 µM each time.
On to `COc1cc([C@@H]2c3cc4c(cc3[C@@H](NC(=O)c3ccccc3)C3COC(=O)[C@@H]32)OCO4)cc(OC)c1O` (stereo not given in full), for which the TGI in [1] is 25.1 µM; in [2] it was over 100 µM; in assay [3], 38 µM; in [4], 26.6 µM; in [5] it was 56.7 µM; in assay [8], 27 µM. For the same compound, the figures for the TGI in [9] and in assay [10] were over 100 µM and 22 µM, respectively.
As to `Cc1ccc(NC(=O)/C(=N\Nc2ccc([N+](=O)[O-])cc2[N+](=O)[O-])C2C(=O)NC(=O)NC2=O)cc1`, the TGI in assay [1], in assay [2], in assay [3], in [4], in assay [5] and in assay [8] was over 100 µM throughout. The TGI in assay [9] and in [10] was over 100 µM throughout.

For the origin of these results see PubChem BioAssay (NCI).
